Experiments:
[1] = system: blackgrass; assay: Test B postemergence herbicide test; type: in vivo, Alopecurus myosuroides; conditions: postemergence
Procedure, shortened: (§1)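 Treated at 2-leaf (paddy) or 1–4-leaf, 2–18 cm (postemergence); greenhouse 13–15 d; visual score vs control, 0 none to 100 complete control; dash = not tested.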

[2] = system: ducksalad; assay: Test B flooded paddy test; type: in vivo, Heteranthera limosa; conditions: 1000 g ai/ha, scale 0 to 100 (0 no effect, 100 complete control)
Procedure, shortened: as §1

[3] = system: barnyardgrass; assay: Test B pre-/postemergence herbicide test; type: in vivo, Echinochloa crus-galli; conditions: for Barnyardgrass plant response rating: postemergence
Procedure, shortened: (§2)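 Herbicidal effect was judged by eye on a 0–100 scale after plants stood 13 to 15 days in the greenhouse following pre- or postemergence treatment with surfactant-containing formulations.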

[4] = system: Surinam grass; assay: Test B pre-/postemergence herbicide test; type: in vivo, Urochloa decumbens; conditions: for Surinam Grass plant response rating: postemergence
Procedure, shortened: (§3)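 Visual rating, 0 (no effect) to 100 (complete control), versus untreated controls after 13–15 d in greenhouse. Pre- and postemergence applications (postemergence plants 2–18 cm, 1–4 leaves); flooded paddy arm at 2-leaf stage. Compounds in non-phytotoxic solvent plus surfactant.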

[5] = system: corn; assay: Test B pre-/postemergence herbicide test; type: in vivo, Zea mays; conditions: for Corn plant response rating: postemergence
Procedure, shortened: as §3

[6] = system: rice; assay: Test B flooded paddy test; type: in vivo, Oryza sativa; conditions: 1000 g ai/ha, scale 0 to 100 (0 no effect, 100 complete control)
Procedure, shortened: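 Read-out: visual comparison with controls, scored 0 to 100, where 100 means complete control and 0 no effect. Formulated chemicals were applied postemergence to plants 2–18 cm tall (1- to 4-leaf), or to flooded-paddy plants at the 2-leaf stage, then held 13 to 15 days under glass.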

[7] = system: wild oat; assay: Test B postemergence herbicide test; type: in vivo, Avena fatua; conditions: postemergence
Procedure, shortened: (§4)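 Plants grow to 1- to 4-leaf stage (2–18 cm) for postemergence spraying, or to 2-leaf stage for the paddy test. Formulated compound is applied. Greenhouse holding lasts 13–15 days. Response is scored visually relative to controls, 0 no effect to 100 complete control; a dash means no result.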

[8] = system: small flower umbrella sedge; assay: Test B flooded paddy test; type: in vivo, Cyperus difformis; conditions: 1000 g ai/ha, scale 0 to 100 (0 no effect, 100 complete control)
Procedure, shortened: as §1

[9] = system: giant foxtail; assay: Test B pre-/postemergence herbicide test; type: in vivo, Setaria faberi; conditions: for Foxtail, Giant plant response rating: postemergence
Procedure, shortened: as §3

[10] = system: wheat; assay: Test B postemergence herbicide test; type: in vivo, Triticum aestivum; parameters: key to Wheat plant response rating: 0 = no effect, 100 = complete control; conditions: postemergence
Procedure, shortened: as §4

[11] = system: cocklebur; assay: Test B pre-/postemergence herbicide test; type: in vivo, Xanthium strumarium; conditions: for Cocklebur plant response rating: postemergence
Procedure, shortened: as §2

[12] = system: morningglory; assay: Test B pre-/postemergence herbicide test; type: in vivo, Ipomoea coccinea; conditions: for Morningglory plant response rating: postemergence
Procedure, shortened: as §2

[13] = system: pigweed; assay: Test B pre-/postemergence herbicide test; type: in vivo, Amaranthus retroflexus; conditions: for Pigweed plant response rating: postemergence
Procedure, shortened: as §3

[14] = system: large crabgrass; assay: Test B pre-/postemergence herbicide test; type: in vivo, Digitaria sanguinalis; conditions: for Crabgrass, Large plant response rating: postemergence
Procedure, shortened: as §3

[15] = system: velvetleaf; assay: Test B pre-/postemergence herbicide test; type: in vivo, Abutilon theophrasti; conditions: for Velvetleaf plant response rating: postemergence
Procedure, shortened: as §3

[16] = 125 g ai/ha, visual rating, scale 0 (no effect) to 100 (complete control)
[17] = 500 g ai/ha, scale 0 to 100, 0 is no effect, 100 is complete control
[18] = 125 g ai/ha, 0 = no effect, 100 = complete control, preemergence
[19] = 500 g ai/ha, visual rating, 0 = no effect, 100 = complete control, preemergence

For `CCNC(=O)c1ccc(F)c(NC(=O)c2cc(C(C)(C)C)nn2CC)n1` [Compound 278], the “Blackgrass plant response rating” value [1, 16] was 20, the “Blackgrass plant response rating” value [1, 17] was 30 and the “Ducksalad plant response rating” value [2] was 80. The “Barnyardgrass plant response rating (0 to 100 scale)” value [3, 18] was 30, the “Plant response rating, Barnyardgrass” value [3, 19] was 80 and the “Barnyardgrass plant response rating” value [3, 16] was 0. The “Barnyardgrass plant response rating” value [3, 17] was 10, the “Surinam Grass plant response rating (0 to 100 scale)” value [4, 18] was 20 and the “Plant response rating, Surinam Grass” value [4, 19] was 60. For the same molecule, the “Surinam Grass plant response rating” value [4, 16] was 10, the “Surinam Grass plant response rating” value [4, 17] was 10 and the “Corn plant response rating (0 to 100 scale)” value [5, 18] was 0. For the same molecule, the “Plant response rating, Corn” value [5, 19] was 20, the “Corn plant response rating” value [5, 16] was 10 and the “Corn plant response rating” value [5, 17] was 20. The “Rice plant response rating” value [6] was 60, the “Oat, Wild plant response rating” value [7, 16] was 20 and the “Oat, Wild plant response rating” value [7, 17] was 30. For the same molecule, the “Sedge, Umbrella plant response rating” value [8] was 70, the “Foxtail, Giant plant response rating (0 to 100 scale)” value [9, 18] was 20 and the “Plant response rating, Foxtail, Giant” value [9, 19] was 80. The “Foxtail, Giant plant response rating” value [9, 16] was 0, the “Foxtail, Giant plant response rating” value [9, 17] was 10 and the “Wheat plant response rating” value [10, 16] was 30. For the same molecule, the “Wheat plant response rating” value [10, 17] was 30, the “Cocklebur plant response rating (0 to 100 scale)” value [11, 18] was 0 and the “Plant response rating, Cocklebur” value [11, 19] was 0. The “Cocklebur plant response rating” value [11, 16] was 10, the “Cocklebur plant response rating” value [11, 17] was 30 and the “Morningglory plant response rating (0 to 100 scale)” value [12, 18] was 0. The “Plant response rating, Morningglory” value [12, 19] was 10, the “Morningglory plant response rating” value [12, 16] was 0 and the “Morningglory plant response rating” value [12, 17] was 20. The “Pigweed plant response rating (0 to 100 scale)” value [13, 18] was 100, the “Plant response rating, Pigweed” value [13, 19] was 100 and the “Pigweed plant response rating” value [13, 16] was 10. For the same molecule, the “Pigweed plant response rating” value [13, 17] was 40, the “Crabgrass, Large plant response rating (0 to 100 scale)” value [14, 18] was 20 and the “Plant response rating, Crabgrass, Large” value [14, 19] was 80. For the same molecule, the “Crabgrass, Large plant response rating” value [14, 16] was 0, the “Crabgrass, Large plant response rating” value [14, 17] was 10 and the “Velvetleaf plant response rating (0 to 100 scale)” value [15, 18] was 0. The “Plant response rating, Velvetleaf” value [15, 19] was 60, the “Velvetleaf plant response rating” value [15, 16] was 10 and the “Velvetleaf plant response rating” value [15, 17] was 10.
